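Compound exposure: 48 hours, 5 concentrations, 96-well plates. At the TGI there is no net growth.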
Legend:
Experiment in all cases: DTP human tumour cell line panel, 48 h
[1] = tested on: COLO 205 colon
[2] = tested on: SF-295 CNS
[3] = tested on: HCC-2998 colon
[4] = tested on: SK-MEL-28 melanoma
[5] = tested on: UACC-257 melanoma
[6] = tested on: OVCAR-3 ovarian
[7] = tested on: K-562 leukemia
[8] = tested on: HT29 colon
[9] = tested on: PC-3 prostate
[10] = tested on: IGROV1 ovarian
[11] = tested on: SK-MEL-5 melanoma
[12] = tested on: HOP-62 NSCLC
[13] = tested on: NCI-H23 lung
[14] = tested on: ACHN renal
[15] = tested on: SF-268 CNS
[16] = tested on: MALME-3M melanoma
[17] = tested on: A549 NSCLC
[18] = tested on: SF-539 CNS
[19] = tested on: KM12 colon
[20] = tested on: OVCAR-4 ovarian
[21] = tested on: SW-620 colon
[22] = tested on: OVCAR-5 ovarian
[23] = tested on: NCI/ADR-RES ovarian
[24] = tested on: RXF 393 renal
[25] = tested on: TK-10 renal
[26] = tested on: SN12C renal
[27] = tested on: MDA-MB-435
[28] = tested on: SNB-75 CNS
[29] = tested on: RPMI-8226 leukemia
[30] = tested on: OVCAR-8 ovarian
[31] = tested on: SR leukemia
[32] = tested on: HCT-116 colon
[33] = tested on: M14 melanoma
[34] = tested on: NCI-H460 lung
[35] = tested on: EKVX NSCLC
[36] = tested on: HOP-92 NSCLC
[37] = tested on: SK-MEL-2 melanoma
[38] = tested on: MOLT-4 leukemia
[39] = tested on: UACC-62 melanoma
[40] = tested on: T-47D breast
[41] = tested on: MDA-N
[42] = tested on: NCI-H522 lung
[43] = tested on: U251 CNS
[44] = tested on: SNB-19 CNS
[45] = tested on: CAKI-1 renal
[46] = tested on: BT-549 breast
[47] = tested on: 786-0 renal
[48] = tested on: HCT-15 colon
[49] = tested on: MDA-MB-231 breast
[50] = tested on: HS 578T breast
[51] = tested on: CCRF-CEM leukemia
[52] = tested on: SK-OV-3 ovarian
[53] = tested on: MCF7 breast
[54] = tested on: DU-145 prostate
[55] = tested on: NCI-H226 lung
[56] = tested on: HL-60(TB) leukemia
[57] = tested on: UO-31 renal

Structure (SMILES): Cc1c2ccccc2cc2nc3ccccc3n12
- TGI [1]: > 10 µM
- TGI [2]: > 10 µM
- TGI [3]: > 10 µM
- TGI [4]: > 10 µM
- TGI [5]: > 10 µM
- TGI [6]: > 10 µM
- TGI [7]: > 10 µM
- TGI [8]: > 10 µM
- TGI [9]: > 10 µM
- TGI [10]: > 10 µM
- TGI [11]: > 10 µM
- TGI [12]: > 10 µM
- TGI [13]: > 10 µM
- TGI [14]: > 10 µM
- TGI [15]: > 10 µM
- TGI [16]: > 10 µM
- TGI [17]: > 10 µM
- TGI [18]: > 10 µM
- TGI [19]: > 10 µM
- TGI [20]: > 10 µM
- TGI [21]: > 10 µM
- TGI [22]: > 10 µM
- TGI [23]: > 10 µM
- TGI [24]: > 10 µM
- TGI [25]: > 10 µM
- TGI [26]: > 10 µM
- TGI [27]: > 10 µM
- TGI [28]: > 10 µM
- TGI [29]: > 10 µM
- TGI [30]: > 10 µM
- TGI [31]: > 10 µM
- TGI [32]: > 10 µM
- TGI [33]: > 10 µM
- TGI [34]: > 10 µM
- TGI [35]: > 10 µM
- TGI [36]: > 10 µM
- TGI [37]: > 10 µM
- TGI [38]: > 10 µM
- TGI [39]: > 10 µM
- TGI [40]: > 10 µM
- TGI [41]: > 10 µM
- TGI [42]: > 10 µM
- TGI [43]: > 10 µM
- TGI [44]: > 10 µM
- TGI [45]: > 10 µM
- TGI [46]: > 10 µM
- TGI [47]: > 10 µM
- TGI [48]: > 10 µM
- TGI [49]: > 10 µM
- TGI [50]: > 10 µM
- TGI [51]: > 10 µM
- TGI [52]: > 10 µM
- TGI [53]: > 10 µM
- TGI [54]: > 10 µM
- TGI [55]: > 10 µM
- TGI [56]: > 10 µM

Structure (SMILES): O=C(O)c1cc2ccccc2c(N=Nc2ccc(S(=O)(=O)O)cc2)c1O
- TGI [1]: > 100 µM
- TGI [2]: > 100 µM
- TGI [3]: > 100 µM
- TGI [4]: > 100 µM
- TGI [5]: > 100 µM
- TGI [6]: > 100 µM
- TGI [7]: > 100 µM
- TGI [8]: > 100 µM
- TGI [9]: > 100 µM
- TGI [10]: > 100 µM
- TGI [11]: > 100 µM
- TGI [12]: > 100 µM
- TGI [14]: > 100 µM
- TGI [15]: > 100 µM
- TGI [16]: > 100 µM
- TGI [17]: > 100 µM
- TGI [18]: > 100 µM
- TGI [19]: > 100 µM
- TGI [20]: > 100 µM
- TGI [21]: > 100 µM
- TGI [22]: > 100 µM
- TGI [23]: > 100 µM
- TGI [24]: > 100 µM
- TGI [25]: > 100 µM
- TGI [26]: > 100 µM
- TGI [27]: > 100 µM
- TGI [28]: > 100 µM
- TGI [29]: > 100 µM
- TGI [30]: > 100 µM
- TGI [57]: > 100 µM
- TGI [31]: > 100 µM
- TGI [32]: > 100 µM
- TGI [33]: > 100 µM
- TGI [34]: > 100 µM
- TGI [35]: > 100 µM
- TGI [36]: > 100 µM
- TGI [37]: > 100 µM
- TGI [38]: > 100 µM
- TGI [39]: > 100 µM
- TGI [40]: > 100 µM
- TGI [41]: > 100 µM
- TGI [42]: > 100 µM
- TGI [43]: > 100 µM
- TGI [44]: > 100 µM
- TGI [45]: > 100 µM
- TGI [46]: > 100 µM
- TGI [47]: > 100 µM
- TGI [48]: > 100 µM
- TGI [49]: > 100 µM
- TGI [50]: > 100 µM
- TGI [51]: > 100 µM
- TGI [52]: > 100 µM
- TGI [53]: > 100 µM
- TGI [54]: > 100 µM
- TGI [55]: > 100 µM
- TGI [56]: > 100 µM

Structure (SMILES): COC(=O)c1c(OC(C)=O)ccc2c1c1c(OC(C)=O)c3ccccc3c(OC(C)=O)c1n2C
- TGI [1]: > 100 µM
- TGI [2]: 70.7 µM
- TGI [3]: 52.1 µM
- TGI [4]: > 100 µM
- TGI [6]: 44.5 µM
- TGI [7]: 43.2 µM
- TGI [8]: > 100 µM
- TGI [9]: > 100 µM
- TGI [10]: 35.5 µM
- TGI [11]: 42.1 µM
- TGI [12]: 65.1 µM
- TGI [13]: > 100 µM
- TGI [14]: 85 µM
- TGI [15]: 77.3 µM
- TGI [16]: 81.2 µM
- TGI [17]: > 100 µM
- TGI [18]: 61.7 µM
- TGI [19]: 51.1 µM
- TGI [20]: 93.5 µM
- TGI [22]: > 100 µM
- TGI [23]: > 100 µM
- TGI [24]: > 100 µM
- TGI [25]: 67.8 µM
- TGI [26]: > 100 µM
- TGI [27]: > 100 µM
- TGI [28]: 26.4 µM
- TGI [29]: 47.4 µM
- TGI [30]: 85.2 µM
- TGI [57]: > 100 µM
- TGI [31]: 34.5 µM
- TGI [32]: 58.9 µM
- TGI [33]: 99.4 µM
- TGI [34]: > 100 µM
- TGI [35]: 39.2 µM
- TGI [36]: 38.7 µM
- TGI [37]: 36 µM
- TGI [38]: 39.1 µM
- TGI [39]: 49.4 µM
- TGI [40]: 50.5 µM
- TGI [41]: > 100 µM
- TGI [42]: 28.3 µM
- TGI [43]: 90.2 µM
- TGI [44]: > 100 µM
- TGI [45]: 60 µM
- TGI [46]: 57.1 µM
- TGI [47]: 94.8 µM
- TGI [48]: > 100 µM
- TGI [49]: > 100 µM
- TGI [50]: 62.5 µM
- TGI [51]: 60.5 µM
- TGI [52]: 52.4 µM
- TGI [53]: > 100 µM
- TGI [54]: > 100 µM
- TGI [55]: > 100 µM
- TGI [56]: 48.1 µM

Reference: PubChem BioAssay (NCI)
